# Data: US20140155376A1, “PYRROLOPYRAZINE KINASE INHIBITORS” (Hoffmann-La Roche Inc., priority 2010, published 2014)
# Biological target: T1, JAK3 (recombinant human kinase domain; h-jak3(810-1124)) (Homo sapiens, UniProt P52333)
# T1 construct: h-jak3(810- 1124)-sf9-c; made in house; host or cells: Sf9 insect cells
# Assay: Determination of IC50 of Janus Kinase (JAK) inhibition: JAK3, radioactive end-point assay with 33P-ATP
# Format: biochemical
# Details: JAK3 kinase domain; ATP 1.5 uM, peptide 50 uM, 20 minutes, room temperature, 10% DMSO; read-out: Ic50 h-jak3(810-1124)-sf9-c:no additive
# Source text: Determination of IC50 of Janus Kinase (JAK) Inhibition:
# Enzymes and peptide substrate used are described below: • JAK1: Recombinant human kinase domain from Invitrogen (Cat # PV4774) • JAK3: Recombinant human kinase domain from Millipore (Cat #14-629) or prepared. • JAK2: Recombinant human kinase domain from Millipore (Cat #14-640) • Substrate: N-terminally biotinylated 14-mer peptide derived from activation loop of JAK1 with sequence of the peptide substrate: Biotin-[sequence]
# Assay Conditions Used are Described Below: • Assay Buffer: JAK Kinase Buffer: 50 mM Hepes [pH 7.2], 10 mM MgCl2, 1 mM DTT, • 1 mg/ml BSA. The assay is carried out in this buffer. • Assay Format The kinase activity of all three JAK kinases is measured using a radioactive, end-point assay and with trace amounts of ^33P-ATP. The assays are carried out in 96-well polypropylene plates.
# All concentrations are final in the reaction mixture and all incubations are carried at room temperature. […] Final concentration of DMSO in the reaction is 10%. • 2) Compounds are preincubated with enzyme (0.5 nM JAK3 (commercially available), 0.2 nM JAK3 (prepared), 1 nM JAK2, 5 nM JAK1) for 10 minutes. • 3) Reactions are initiated by the addition of a cocktail of the two substrates (ATP and peptide premixed in the JAK Kinase Buffer). In the JAK2/JAK3 assays, ATP and the peptide are used at concentrations of 1.5 uM and 50 uM, respectively. JAK1 assay is carried out at an ATP concentration of 10 uM and a peptide concentration of 50 uM. • 4) The duration of the assay for JAK2 and JAK3 is 20 minutes. JAK1 assay is carried out for 40 minutes. With all three enzymes, reactions are terminated by the addition of 0.5M EDTA to a final concentration of 100 mM. • 5) 25 ul of terminated reactions are transferred to 150 ul of a 7.5% (v/v) slurry of streptavidin-coated sepharose beads in MgCl2- and CaCl2-free 1× Phosphate Buffered Saline containing 50 mM of EDTA in 96-well, 1.2 um MultiScreen-BV filter plates. • 6) After a 30-minute incubation, the beads are washed under vacuum with the following buffers: • a. 3 to 4 washes with 200 ul of 2M NaCl. • b. 3 to 4 washes with 200 ul of 2M NaCl plus 1% (v/v) phosphoric acid. • c. 1 wash with water. • 7) Washed plates are dried in a 60° C. oven for between 1 to 2 hours. • 8) 70 ul of Microscint 20 scintillation fluid is added to each well of filter plates and after at least 30 minutes of incubation, radioactive counts are measured in a Perkin-Elmer microplate scintillation counter.
# T1 sequence (P52333 810-1124): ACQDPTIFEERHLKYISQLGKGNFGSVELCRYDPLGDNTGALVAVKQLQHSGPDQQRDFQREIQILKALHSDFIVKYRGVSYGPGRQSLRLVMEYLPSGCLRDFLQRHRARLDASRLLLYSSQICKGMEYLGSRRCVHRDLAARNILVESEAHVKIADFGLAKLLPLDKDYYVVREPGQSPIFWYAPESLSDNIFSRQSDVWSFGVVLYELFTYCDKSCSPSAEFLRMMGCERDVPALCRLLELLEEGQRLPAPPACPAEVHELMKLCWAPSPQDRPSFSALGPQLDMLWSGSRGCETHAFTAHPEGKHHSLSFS
row,SMILES,IC50 [nM]
1,"CC(Cn1ccnc1)NC(=O)c1ccc(-c2cnc3[nH]cc(C(=O)N[C@@H](C)C(C)(C)C)c3n2)s1 (stereo partly drawn) [Example I-174, 2-[5-(2-Imidazol-1-yl-1-methyl-ethylcarbamoyl)-thiophen-2-yl]-5H-pyrrolo[2,3-b]pyrazine-7-carboxylic acid ((S)-1,2,2-trimethyl-propyl)-amide]",0.22
2,"CCNC(=O)c1c[nH]c2ncc(Oc3ccc4cc[nH]c4c3)nc12 [Example I-273, 2-(1H-Indol-6-yloxy)-5H-pyrrolo[2,3-b]pyrazine-7-carboxylic acid ethylamide]",470
3,"CC(C)NC(=O)c1c[nH]c2ncc(Oc3ccc4c(c3)CCCC4)nc12 [Example I-240, 2-(5,6,7,8-Tetrahydro-naphthalen-2-yloxy)-5H-pyrrolo[2,3-b]pyrazine-7-carboxylic acid isopropylamide]",315
4,"CC(=O)N[C@@H]1CCc2ccc(Oc3cnc4[nH]cc(C(=O)NC(C)C#N)c4n3)cc21 (stereo partly drawn) [Example I-298, 2-((R)-3-Acetylamino-indan-5-yloxy)-5H-pyrrolo[2,3-b]pyrazine-7-carboxylic acid (cyano-methyl-methyl)-amide]",387
5,"Cc1ccc(-c2cnc3[nH]cc(C(=O)N[C@@H](C)C(C)(C)O)c3n2)cn1 [Example I-21, 2-(6-Methyl-pyridin-3-yl)-5H-pyrrolo[2,3-b]pyrazine-7-carboxylic acid ((S)-2-hydroxy-1,2-dimethyl-propyl)-amide]",45
6,"CC(NC(=O)c1ccc(-c2cnc3[nH]cc(C(=O)N[C@@H](C)C(C)(C)C)c3n2)s1)c1cccnc1 (stereo partly drawn) [Example I-171, 2-[5-(1-Pyridin-3-yl-ethylcarbamoyl)-thiophen-2-yl]-5H-pyrrolo[2,3-b]pyrazine-7-carboxylic acid ((S)-1,2,2-trimethyl-propyl)-amide]",0.23
7,"CC(C)NC(=O)c1ccc(-c2cnc3[nH]cc(C(=O)N[C@@H](C)C(C)(C)C)c3n2)s1 [Example I-156, 2-(5-Isopropyl-carbamoyl-thiophen-2-yl)-5H-pyrrolo[2,3-b]pyrazine-7-carboxylic acid ((S)-1,2,2-trimethyl-propyl)-amide]",0.35
8,"COc1ccc(OC)c(CNC(=O)c2ccc(-c3cnc4[nH]cc(C(=O)N[C@@H](C)C(C)(C)C)c4n3)s2)c1 [Example I-204, 2-[5-(2,5-Dimethoxy-benzylcarbamoyl)-thiophen-2-yl]-5H-pyrrolo[2,3-b]pyrazine-7-carboxylic acid ((S)-1,2,2-trimethyl-propyl)-amide]",0.56
9,"CC1CCCC(C)N1C(=O)c1ccc(-c2cnc3[nH]cc(C(=O)N[C@@H](C)C(C)(C)C)c3n2)s1 (stereo partly drawn) [Example I-181, 2-[5-(2,6-Dimethyl-piperidine-1-carbonyl)-thiophen-2-yl]-5H-pyrrolo[2,3-b]pyrazine-7-carboxylic acid ((S)-1,2,2-trimethyl-propyl)-amide]",0.62
10,"COCC(C)NC(=O)c1ccc(-c2cnc3[nH]cc(C(=O)N[C@@H](C)C(C)(C)C)c3n2)s1 (stereo partly drawn) [Example I-214, 2-[5-(2-Methoxy-1-methyl-ethylcarbamoyl)-thiophen-2-yl]-5H-pyrrolo[2,3-b]pyrazine-7-carboxylic acid ((S)-1,2,2-trimethyl-propyl)-amide]",0.28
11,"C[C@H](NC(=O)c1c[nH]c2ncc(-c3ccc(C(=O)N4CCC(C#N)CC4)s3)nc12)C(C)(C)C [Example I-167, 2-[5-(4-Cyano-piperidine-1-carbonyl)-thiophen-2-yl]-5H-pyrrolo[2,3-b]pyrazine-7-carboxylic acid ((S)-1,2,2-trimethyl-propyl)-amide]",0.32
12,"CCNC(=O)c1c[nH]c2ncc(Oc3ccc(C#N)cc3)nc12 [Example I-267, 2-(4-Cyano-phenoxy)-5H-pyrrolo[2,3-b]pyrazine-7-carboxylic acid ethylamide]",2360
13,"C[C@H](NC(=O)c1c[nH]c2ncc(-c3ccc(C(=O)NC45CC6CC(CC(C6)C4)C5)s3)nc12)C(C)(C)C [Example I-194, 2-[5-(Adamantan-1-ylcarbamoyl)-thiophen-2-yl]-5H-pyrrolo[2,3-b]pyrazine-7-carboxylic acid ((S)-1,2,2-trimethyl-propyl)-amide]",1.34
14,"COc1cccc(Oc2cnc3[nH]cc(C(=O)NC(C)C)c3n2)c1 [Example I-229, 2-(3-Methoxy-phenoxy)-5H-pyrrolo[2,3-b]pyrazine-7-carboxylic acid isopropylamide]",184
15,"Cc1cc(-c2cnc3[nH]cc(C(=O)N[C@@H](C)C(C)(C)C)c3n2)sc1C(=O)N1CC(CO)(CO)C1 [Example I-222, 2-[5-(3,3-Bis-hydroxymethyl-azetidine-1-carbonyl)-4-methyl-thiophen-2-yl]-5H-pyrrolo[2,3-b]pyrazine-7-carboxylic acid ((S)-1,2,2-trimethyl-propyl)-amide]",0.11
16,"CCNC(=O)c1c[nH]c2ncc(Oc3cccc(CC)c3)nc12 [Example I-249, 2-(3-Ethyl-phenoxy)-5H-pyrrolo[2,3-b]pyrazine-7-carboxylic acid ethylamide]",1590

# Continued, values first:
row,IC50 [nM],SMILES
1,37.7,"CC[C@H](CO)NC(=O)c1c[nH]c2ncc(C3CC3)nc12 [Example I-58, 2-Cyclopropyl-5H-pyrrolo[2,3-b]pyrazine-7-carboxylic acid ((R)-1-hydroxymethyl-propyl)-amide]"
2,9.03,"COC(C)(C)CNC(=O)c1c[nH]c2ncc(C3CC3)nc12 [Example I-50, 2-Cyclopropyl-5H-pyrrolo[2,3-b]pyrazine-7-carboxylic acid (2-methoxy-2-methyl-propyl)-amide]"
3,8.38,"C[C@H](NC(=O)c1c[nH]c2ncc(C3CC3)nc12)[C@@](C)(O)C(F)(F)F [Example I-53, 2-Cyclopropyl-5H-pyrrolo[2,3-b]pyrazine-7-carboxylic acid ((1S,2R)-3,3,3-trifluoro-2-hydroxy-1,2-dimethyl-propyl)-amide]"
4,150,"C[C@H](NC(=O)c1c[nH]c2ncc(C3CC3)nc12)C1(C#N)CCCCC1 [Example I-118, 2-Cyclopropyl-5H-pyrrolo[2,3-b]pyrazine-7-carboxylic acid [(S)-1-(1-cyano-cyclohexyl)-ethyl]-amide]"
5,35.7,"CC(NC(=O)c1c[nH]c2ncc(Oc3ccc(F)cc3)nc12)C1CC1 (centres unmarked) [Example I-113, 2-(4-Fluoro-phenoxy)-5H-pyrrolo[2,3-b]pyrazine-7-carboxylic acid (1-cyclopropyl-ethyl)-amide]"
6,9.84,"CC(C)[C@H](CO)NC(=O)c1c[nH]c2ncc(C3CC3)nc12 [Example I-56, 2-Cyclopropyl-5H-pyrrolo[2,3-b]pyrazine-7-carboxylic acid ((R)-1-hydroxymethyl-2-methyl-propyl)-amide]"
7,50,"CC(C)NC(=O)c1c[nH]c2ncc(Oc3ccc4c(c3)[C@H](NC(=O)C3CC3)CC4)nc12 [Example I-284, 2-[(R)-3-(Cyclopropane-carbonyl-amino)-indan-5-yloxy]-5H-pyrrolo[2,3-b]pyrazine-7-carboxylic acid isopropylamide]"
8,103,"CC(NC(=O)c1c[nH]c2ncc(Oc3ccc(F)cc3F)nc12)C1CC1 (centres unmarked) [Example I-105, 2-(2,4-Difluoro-phenoxy)-5H-pyrrolo[2,3-b]pyrazine-7-carboxylic acid (1-cyclopropyl-ethyl)-amide]"
9,6.61,"CCn1cc(-c2cnc3[nH]cc(C(=O)N[C@H](C)C(C)(C)O)c3n2)cn1 [Example I-99, 2-(1-Ethyl-1H-pyrazol-4-yl)-5H-pyrrolo[2,3-b]pyrazine-7-carboxylic acid ((R)-2-hydroxy-1,2-dimethyl-propyl)-amide]"
10,225,"CC(C)(CO)CNC(=O)c1c[nH]c2ncc(Br)nc12 [Example I-1, 2-Bromo-5H-pyrrolo[2,3-b]pyrazine-7-carboxylic acid (3-hydroxy-2,2-dimethyl-propyl)-amide]"
11,128,"CC[C@@H](CO)NC(=O)c1c[nH]c2ncc(C3CC3)nc12 [Example I-40, 2-Cyclopropyl-5H-pyrrolo[2,3-b]pyrazine-7-carboxylic acid ((S)-1-hydroxymethyl-propyl)-amide]"
12,50,"C[C@@H](NC(=O)c1c[nH]c2ncc(C3CC3)nc12)c1ccccc1 [Example I-66, 2-Cyclopropyl-5H-pyrrolo[2,3-b]pyrazine-7-carboxylic acid ((R)-1-phenyl-ethyl)-amide]"
13,115,"C[C@H](NC(=O)c1c[nH]c2ncc(C3CC3)nc12)[C@@](C)(O)CC1CC1 [Example I-38, 2-Cyclopropyl-5H-pyrrolo[2,3-b]pyrazine-7-carboxylic acid ((1S,2S)-3-cyclopropyl-2-hydroxy-1,2-dimethyl-propyl)-amide]"
14,11.1,"CC(C)(C)[C@H](CO)NC(=O)c1c[nH]c2ncc(C3CC3)nc12 [Example I-52, 2-Cyclopropyl-5H-pyrrolo[2,3-b]pyrazine-7-carboxylic acid ((R)-1-hydroxymethyl-2,2-dimethyl-propyl)-amide]"
15,208,"CC(C)(CO)NC(=O)c1c[nH]c2ncc(C3CC3)nc12 [Example I-45, 2-Cyclopropyl-5H-pyrrolo[2,3-b]pyrazine-7-carboxylic acid (2-hydroxy-1,1-dimethyl-ethyl)-amide]"
16,132,"CC(C)(C)[C@@H](CC#N)NC(=O)c1c[nH]c2ncc(C3CC3)nc12 [Example I-76, 2-Cyclopropyl-5H-pyrrolo[2,3-b]pyrazine-7-carboxylic acid ((R)-1-cyanomethyl-2,2-dimethyl-propyl)-amide]"
17,34.3,"CC(C)(CO)CNC(=O)c1c[nH]c2ncc(N3CCCC3)nc12 [Example I-10, 2-Pyrrolidin-1-yl-5H-pyrrolo[2,3-b]pyrazine-7-carboxylic acid (3-hydroxy-2,2-dimethyl-propyl)-amide]"
18,152,"C[C@H](NC(=O)c1c[nH]c2ncc(C3CCCCC3)nc12)C(C)(C)O [Example I-11, 2-Cyclohexyl-5H-pyrrolo[2,3-b]pyrazine-7-carboxylic acid ((S)-2-hydroxy-1,2-dimethyl-propyl)-amide]"
19,414,"O=C(NC(CO)CO)c1c[nH]c2ncc(C3CC3)nc12 [Example I-51, 2-Cyclopropyl-5H-pyrrolo[2,3-b]pyrazine-7-carboxylic acid (2-hydroxy-1-hydroxymethyl-ethyl)-amide]"
